Reference: PMC12015759, “A humanized Gs-coupled DREADD for circuit and behavior modulation” (Frontiers in Cellular Neuroscience, 2025)

How the values were obtained:
[1] = test system: dopaminergic neurons in the SNc; assay: 6-OHDA lesion, TH staining of striatum and SNc; format: in vivo, mouse; conditions: bilateral injection into the striatum, 800 nL of 5 mg/mL per side, 1 week
Protocol: (§1) A PD mouse model was generated using 6-OHDA. Desipramine (Sigma) was administrated (25 mg/kg) via intraperitoneal injection 30 min before a 6-OHDA injection. The stereotactic injection procedure was identical to the AAV injection described above. A volume of 800 nL 6-OHDA (5 mg/mL) was injected into each side of striatum (from bregma: AP 0.5 mm, ML ±1.5 mm, DV –3.2 mm) at a rate of 100 nL/min. One week after 6-OHDA lesions were generated, AAV injections were administered, and behavioral tests were conducted 3 weeks after AAV injections.
Animals were deeply anesthetized and perfused with saline and 4% paraformaldehyde perfusion through left ventricle. The mouse brains were extracted, fixed overnight, and then dehydrated with 30% sucrose solution. After being embedded in OCT (Sakura), brain sections were prepared at 40 μm thickness by a cryostat (Leica, CM1950).
Brain slices were blocked and permeabilized with PBS containing 5% bovine serum albumin (BSA) and 0.3% Triton X-100 for 30 min. The slices were then incubated with anti-GFP (Abcam, ab13970) or anti-TH (Abcam, ab76442), diluted to 1:500 in PBS containing 5% BSA at 4°C overnight. The sections were then incubated with diluted Alexa Fluor 488 goat anti-chicken IgG antibody (Thermo Fisher, A-11039) or Alexa Fluor 594 donkey anti-mouse IgG antibody (Thermo Fisher, A32744) at room temperature for 1 h. […]

[2] = biological target: T1, rM3Ds (Rattus norvegicus, UniProt P08483, A177S/A238G/A489L/DEL261-437/DEL441-478/E258S/I253V/I483M/INS256[…]/K178L/K182A/K255R/K484R/K486H/L173F/L482A/M480V/R171S/R176Q/R179M/S481M/T174R/T181R/T257A/Y148C); assay: cAMP assay (CRE-luciferase reporter) in HEK293T cells expressing rM3Ds; format: cell-based
T1 construct: host or cells: HEK293T
T1 sequence (P08483 with tags, fused parts or gaps Y148C/R171S/L173F/T174R/R176Q/A177S/K178L/R179M/T181R/K182A/A238G/I253V/K255R/INS256[…]/T257A/E258S/DEL261-437/DEL441-478/M480V/S481M/L482A/I483M/K484R/K486H/A489L): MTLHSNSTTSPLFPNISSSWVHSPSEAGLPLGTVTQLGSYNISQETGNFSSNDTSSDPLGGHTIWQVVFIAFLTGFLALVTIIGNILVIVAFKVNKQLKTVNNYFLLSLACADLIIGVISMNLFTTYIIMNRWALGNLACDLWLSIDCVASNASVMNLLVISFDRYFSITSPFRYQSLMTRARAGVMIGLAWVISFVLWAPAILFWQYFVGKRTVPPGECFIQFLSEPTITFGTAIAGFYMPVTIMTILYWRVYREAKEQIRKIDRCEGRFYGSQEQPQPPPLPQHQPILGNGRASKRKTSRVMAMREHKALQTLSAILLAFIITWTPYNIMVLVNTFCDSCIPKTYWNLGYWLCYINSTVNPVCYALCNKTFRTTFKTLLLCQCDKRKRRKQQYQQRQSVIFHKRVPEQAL

[3] = biological target: T2, hM3Ds (Homo sapiens, UniProt P20309, A178S/A239G/A490L/DEL258-409/DEL413-482/I254V/INS485[…]/K179L/K183A/K256R/K487Q/L174F/L483Q/R172S/R177Q/R180L/T175R/T182R/Y149C/Y255F); assay: Ca2+ imaging (GCaMP6s) in hM3Ds-transfected HEK293T cells; format: cell-based; set-up: hM3Ds was subcloned into pAAV-CMV-EYFP to replace EYFP; expressed in transfected cells; host or cells: HEK293T; conditions: CNO 10 μM, 10 min
T2 sequence (P20309 with tags, fused parts or gaps Y149C/R172S/L174F/T175R/R177Q/A178S/K179L/R180L/T182R/K183A/A239G/I254V/Y255F/K256R/DEL258-409/DEL413-482/L483Q/INS485[…]/K487Q/A490L): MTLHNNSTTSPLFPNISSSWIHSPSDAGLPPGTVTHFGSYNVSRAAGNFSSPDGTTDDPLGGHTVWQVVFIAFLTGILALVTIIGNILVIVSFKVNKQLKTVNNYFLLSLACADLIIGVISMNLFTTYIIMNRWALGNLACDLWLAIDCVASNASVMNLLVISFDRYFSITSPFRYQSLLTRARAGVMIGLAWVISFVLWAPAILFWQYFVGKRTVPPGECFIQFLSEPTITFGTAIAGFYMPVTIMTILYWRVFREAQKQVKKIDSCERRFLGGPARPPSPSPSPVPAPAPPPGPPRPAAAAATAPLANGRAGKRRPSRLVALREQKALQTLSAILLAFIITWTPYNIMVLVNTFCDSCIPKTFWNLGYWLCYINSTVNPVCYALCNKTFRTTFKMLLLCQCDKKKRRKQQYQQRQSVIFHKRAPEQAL
Protocol: As for the Ca^2+ imaging assay, HEK293T cells (ATCC) were seeded in 24-well plate with DMEM containing 10% fetal bovine serum. Upon reaching ~80% confluency, cells were cotransfected with pAAV-CAG-GCaMP6s (0.1 μg), and pAAV-CMV-hM3Ds or pAAV-CMV-hM3Dq (0.1 μg).
48 h after transfection, the medium in each well was replaced with 400 μL CNO (10 μM) solution, or with 400 μL vehicle (medium only). […] Cell fluorescence were imaged under microscopy and quantified using ImageJ.

[4] = test system: PD mice; assay: Open field test in 6-OHDA PD mice with bilateral AAV8R12-G88P7-hM3Ds-2A-EYFP; format: in vivo, mouse; conditions: CNO 0.3 mg/kg
Protocol: (§2) Animals were anesthetized via intraperitoneal injection of pentobarbital sodium (Sigma) and placed into a stereotactic frame (RWD Instruments). An incision was made to expose the skull and locate the site above the SNr (from bregma: AP –3.4 mm, ML 1.3 mm, DV –4.8 mm). A hole in the skull was drilled above the SNr using an electrodrill (RWD Instruments). The AAV8R12-G88P7-hM3Ds-2A-EYFP vector (200 nL volume) was injected using a 10 μL 33-Gauge Hamilton syringe at a rate of 20 nL/min. The syringe was withdrawn 10 min after finishing injection. Behavioral experiments are performed at least 3 weeks after virus injection.
as §1, with “One week after 6-OHDA lesions were generated, AAV injections were administered, and behavioral tests were conducted 3 weeks after AAV injections.” left out
Mice were tested in an open field box arena with length, width and height of 50 × 50 × 50 cm. […] The animals were placed into the test box 30 min after injection and video was recorded for 10 min. The number of rotations, distance traveled, and time spent immobile were then quantified using Anymaze software and the video recordings.

[5] = test system: PD mice; assay: Rotarod test in 6-OHDA PD mice with bilateral AAV8R12-G88P7-hM3Ds-2A-EYFP; format: in vivo, mouse; conditions: CNO treatment
Protocol: as §2, §1
After 3 days of habituation to the environment and operator, the mice were placed on a suspended rod apparatus (Xinruan) and trained at speeds of 10, 20, 30 and 40 rpm/min for 2 days. […]

[6] = test system: mice; assay: Open field test after unilateral AAV8R12-G88P7-hM3Ds-2A-EYFP injection into the SNr; format: in vivo, mouse; conditions: CNO 0.3 mg/kg intraperitoneal vs saline, unilateral hM3Ds in D1-MSNs
Protocol: as §2
Mice were tested in an open field box arena with length, width and height of 50 × 50 × 50 cm. The animals underwent 3 days of habituation to the environment and experimenter and 1 day of habituation to the test apparatus. On the test day, the animals were injected with saline or CNO (0.3 mg/kg). The animals were placed into the test box 30 min after injection and video was recorded for 10 min. The number of rotations, distance traveled, and time spent immobile were then quantified using Anymaze software and the video recordings.

[7] = biological target: T2, hM3Ds
Protocol: (§3) As for the cAMP assay, HEK293T cells (ATCC) were seeded in 6-well plate with DMEM containing 10% fetal bovine serum. Upon reaching ~80% confluency, cells were transfected with DREADDs plasmids (30 ng), pCRE-Luc (GeneBank accession: AF053461.1, 600 ng) and pRL-SV40 (GeneBank accession: AF025845.2, 150 ng). The following day, cells were redistributed from 6-well plates to white opaque 96-well plates pre-coated with poly-L-lysine (Solarbio).
(§4) The plates were then placed back in the cell incubator for 6 h. The cAMP level was detected using a Dual Glo Luciferase Reporter Gene Assay Kit (YEASEN) following the manufacturer’s protocol. The data of each well was presented as the ratio of firefly luciferase luminescence to renilla luciferase luminescence.
(§5) We next examined whether the chemogenetic receptor ligand, CNO, could stimulate hM3-ti23-Ds and hM3Ds and induce up-regulation of cAMP level. We co-transfected HEK293T cells with engineered receptors and the reporter vector, pCRE-Luc, which contains a cAMP response element-driven firefly luciferase (Luc) ([Bokar et al., 1988]); pRL-SV40 encoding renilla luciferase was simultaneously transfected as a transfection efficiency control.

[8] = biological target: T3, hM3-ti23-Ds (Homo sapiens, UniProt P20309, A178S/A239G/A490L/D442R/DEL262-438/DEL444-462/DEL467-485/E259S/I254V/INS257[…]/K179L/K183A/K256R/K465M/K487H/L174F/L463M/R172S/R177Q/R180M/T175R/T182R/T258A/Y149C)
T3 sequence (P20309 with tags, fused parts or gaps Y149C/R172S/L174F/T175R/R177Q/A178S/K179L/R180M/T182R/K183A/A239G/I254V/K256R/INS257[…]/T258A/E259S/DEL262-438/D442R/DEL444-462/L463M/K465M/DEL467-485/K487H/A490L): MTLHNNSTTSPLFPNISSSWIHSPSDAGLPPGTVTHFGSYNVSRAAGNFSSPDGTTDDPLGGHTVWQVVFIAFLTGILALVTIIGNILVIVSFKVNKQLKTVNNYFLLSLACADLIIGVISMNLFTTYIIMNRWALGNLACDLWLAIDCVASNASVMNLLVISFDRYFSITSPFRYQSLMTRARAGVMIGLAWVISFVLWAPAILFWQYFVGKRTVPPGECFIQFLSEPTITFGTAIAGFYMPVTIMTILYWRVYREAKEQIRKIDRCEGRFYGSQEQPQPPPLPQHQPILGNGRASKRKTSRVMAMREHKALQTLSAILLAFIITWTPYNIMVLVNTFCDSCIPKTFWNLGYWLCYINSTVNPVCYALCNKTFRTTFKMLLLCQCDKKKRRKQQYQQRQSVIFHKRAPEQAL
Protocol: as §3, §4, §5

[9] = biological target: hM3Ds-M5 (K406R) (Homo sapiens, UniProt P20309, A178S/A239G/A490L/DEL258-409/DEL413-482/I254V/INS485[…]/K179L/K183A/K256R/K487Q/K566R/L174F/L483Q/R172S/R177Q/R180L/T175R/T182R/Y149C/Y255F); conditions: CNO at 10 μM, compared to hM3Ds
Chain of hM3Ds-M5 (K406R) (P20309 with tags, fused parts or gaps with the stated changes): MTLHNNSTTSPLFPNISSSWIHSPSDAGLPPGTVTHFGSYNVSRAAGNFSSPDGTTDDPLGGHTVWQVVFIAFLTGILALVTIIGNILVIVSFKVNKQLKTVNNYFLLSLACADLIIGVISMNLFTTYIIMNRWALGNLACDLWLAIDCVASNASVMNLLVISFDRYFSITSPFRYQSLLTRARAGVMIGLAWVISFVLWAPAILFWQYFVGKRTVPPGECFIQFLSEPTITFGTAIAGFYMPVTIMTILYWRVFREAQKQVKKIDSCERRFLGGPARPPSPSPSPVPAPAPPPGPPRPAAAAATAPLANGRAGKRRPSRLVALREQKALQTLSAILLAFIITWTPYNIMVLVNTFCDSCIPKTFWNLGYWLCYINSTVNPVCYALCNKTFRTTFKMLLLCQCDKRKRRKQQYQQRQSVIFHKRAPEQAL
Protocol: as §3, §4

[10] = biological target: hM3Ds-M2 (Q402R) (Homo sapiens, UniProt P20309, A178S/A239G/A490L/DEL258-409/DEL413-482/I254V/INS485[…]/K179L/K183A/K256R/K487Q/L174F/L483Q/Q562R/R172S/R177Q/R180L/T175R/T182R/Y149C/Y255F); conditions: CNO at 10 μM, compared to hM3Ds
Chain of hM3Ds-M2 (Q402R) (P20309 with tags, fused parts or gaps with the stated changes): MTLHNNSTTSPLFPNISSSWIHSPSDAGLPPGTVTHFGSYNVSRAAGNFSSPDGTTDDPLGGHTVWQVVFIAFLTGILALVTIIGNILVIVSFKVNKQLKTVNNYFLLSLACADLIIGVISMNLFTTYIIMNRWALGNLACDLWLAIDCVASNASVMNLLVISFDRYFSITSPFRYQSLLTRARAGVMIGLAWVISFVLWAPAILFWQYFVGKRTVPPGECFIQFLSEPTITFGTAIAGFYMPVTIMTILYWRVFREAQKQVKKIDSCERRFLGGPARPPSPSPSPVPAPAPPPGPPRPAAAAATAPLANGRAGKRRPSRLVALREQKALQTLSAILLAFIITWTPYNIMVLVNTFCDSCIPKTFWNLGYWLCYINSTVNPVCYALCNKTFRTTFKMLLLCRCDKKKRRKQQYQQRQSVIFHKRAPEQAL
Protocol: as §3, §4

[11] = biological target: hM3Ds-M3 (D404G) (Homo sapiens, UniProt P20309, A178S/A239G/A490L/D564G/DEL258-409/DEL413-482/I254V/INS485[…]/K179L/K183A/K256R/K487Q/L174F/L483Q/R172S/R177Q/R180L/T175R/T182R/Y149C/Y255F); conditions: CNO at 10 μM, compared to hM3Ds
Chain of hM3Ds-M3 (D404G) (P20309 with tags, fused parts or gaps with the stated changes): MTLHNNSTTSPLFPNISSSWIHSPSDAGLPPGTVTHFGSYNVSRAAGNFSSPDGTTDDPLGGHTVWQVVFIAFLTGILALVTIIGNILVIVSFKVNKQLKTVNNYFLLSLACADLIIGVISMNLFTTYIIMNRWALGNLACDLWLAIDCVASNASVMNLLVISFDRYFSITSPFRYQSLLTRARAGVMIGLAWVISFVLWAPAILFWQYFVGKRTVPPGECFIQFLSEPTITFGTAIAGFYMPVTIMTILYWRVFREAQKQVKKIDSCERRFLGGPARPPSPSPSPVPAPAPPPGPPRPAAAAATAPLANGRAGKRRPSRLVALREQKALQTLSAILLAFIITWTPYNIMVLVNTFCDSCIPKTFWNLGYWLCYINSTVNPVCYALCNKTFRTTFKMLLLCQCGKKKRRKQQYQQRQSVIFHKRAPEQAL
Protocol: as §3, §4

[12] = biological target: hM3Ds-M4 (K405R) (Homo sapiens, UniProt P20309, A178S/A239G/A490L/DEL258-409/DEL413-482/I254V/INS485[…]/K179L/K183A/K256R/K487Q/K565R/L174F/L483Q/R172S/R177Q/R180L/T175R/T182R/Y149C/Y255F); conditions: CNO at 10 μM, compared to hM3Ds
Chain of hM3Ds-M4 (K405R) (P20309 with tags, fused parts or gaps with the stated changes): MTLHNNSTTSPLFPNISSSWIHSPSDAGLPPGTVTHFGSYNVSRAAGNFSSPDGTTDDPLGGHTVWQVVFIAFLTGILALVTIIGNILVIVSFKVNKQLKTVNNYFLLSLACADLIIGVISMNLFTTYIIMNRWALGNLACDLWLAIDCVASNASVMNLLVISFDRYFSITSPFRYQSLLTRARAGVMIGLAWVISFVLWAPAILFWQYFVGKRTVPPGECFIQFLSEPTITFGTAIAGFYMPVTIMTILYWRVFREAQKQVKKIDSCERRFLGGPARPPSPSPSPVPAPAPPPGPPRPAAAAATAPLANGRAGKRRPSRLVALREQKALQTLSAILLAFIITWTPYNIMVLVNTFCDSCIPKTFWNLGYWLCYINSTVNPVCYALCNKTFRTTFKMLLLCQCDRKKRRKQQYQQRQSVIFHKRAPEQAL
Protocol: as §3, §4

[13] = biological target: hM3Ds-M6 (K407R) (Homo sapiens, UniProt P20309, A178S/A239G/A490L/DEL258-409/DEL413-482/I254V/INS485[…]/K179L/K183A/K256R/K487Q/K567R/L174F/L483Q/R172S/R177Q/R180L/T175R/T182R/Y149C/Y255F); conditions: CNO at 10 μM, compared to hM3Ds
Chain of hM3Ds-M6 (K407R) (P20309 with tags, fused parts or gaps with the stated changes): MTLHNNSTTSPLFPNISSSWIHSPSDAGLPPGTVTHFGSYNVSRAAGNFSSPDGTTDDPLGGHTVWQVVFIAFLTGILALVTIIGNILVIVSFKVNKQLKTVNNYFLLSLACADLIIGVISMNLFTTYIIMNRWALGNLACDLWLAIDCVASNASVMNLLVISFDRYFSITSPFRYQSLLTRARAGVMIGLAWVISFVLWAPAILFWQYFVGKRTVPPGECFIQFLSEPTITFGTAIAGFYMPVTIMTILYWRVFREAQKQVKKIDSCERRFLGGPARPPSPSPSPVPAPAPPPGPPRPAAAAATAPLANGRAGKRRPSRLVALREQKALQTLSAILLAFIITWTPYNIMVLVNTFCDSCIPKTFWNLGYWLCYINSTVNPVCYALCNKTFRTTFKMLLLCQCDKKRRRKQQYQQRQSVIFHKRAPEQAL
Protocol: as §3, §4

NCCc1cc(O)c(O)cc1O [6-OHDA, 6-hydroxydopamine]
dopaminergic neurons in the SNc and dopaminergic innervation in the striatum [1]: almost complete loss

CC(=O)OCC[N+](C)(C)C [ACh, acetylcholine chloride]
luciferase activity ([2]; 100 μM of ACh, rM3Ds-transfected cells): modest elevation in luciferase activity

C[N+]1([O-])CCN(C2=Nc3cc(Cl)ccc3Nc3ccccc32)CC1 [CNO, clozapine N-oxide]
calcium rise [3]: did not induce detectable levels of calcium rise
mean distance traveled [4]: reversed
time spent immobile [4]: reversed
latency to fall (rotarod) [5]: partial recovery of motor skills
contralateral rotation [6]: more contralateral rotation
total distance traveled [6]: no difference
fold change in luciferase activity ([7]; CNO at 10 μM, hM3Ds, compared to rM3Ds): comparable fold change
EC50 ([7]; CNO on hM3Ds, HEK293T, 6 h, firefly/renilla luciferase ratio): 1.26 ± 0.2 nM
cAMP response ([7]; hM3Ds, HEK293T): dose-dependently increased the cAMP response
fold change in luciferase activity ([8]; CNO at 10 μM, compared to rM3Ds and hM3Ds): lower fold change
cAMP response ([8]; HEK293T): dose-dependently increased the cAMP response
fold change in luciferase activity [9]: reduced luciferase activity compared to hM3Ds
fold change in luciferase activity [10]: reduced luciferase activity compared to hM3Ds
fold change in luciferase activity [11]: reduced luciferase activity compared to hM3Ds
fold change in luciferase activity [12]: reduced luciferase activity compared to hM3Ds
fold change in luciferase activity [13]: reduced luciferase activity compared to hM3Ds
EC50 ([2]; CNO on rM3Ds, HEK293T, 6 h, firefly/renilla luciferase ratio): 2.39 ± 0.25 nM
